Laboratory results published in patent US20240100013A1, “SOTAGLIFLOZIN FOR IMPROVING LEFT ATRIAL FUNCTION” (CHARITÉ-UNIVERSITÄTSMEDIZIN BERLIN, priority 2021, published 2024).

Columns and labels:
Assay type in all cases: cell-based, rat
LA cardiomyocytes [1] = experiment: Spontaneous SR Ca2+ release events (SCaEs) of isolated LA cardiomyocytes; conditions: HFpEF LA cardiomyocytes after chronic treatment
Excerpt: (§1) Cardiomyocyte isolation. LA and LV cardiomyocytes were isolated using enzymatic digestion as previously described in detail. See Bode D, Guthof T, Pieske B M, Heinzel F R, Hohendanner F: “Isolation of Atrial Cardiomyocytes from a Rat Model of Metabolic Syndrome-related Heart Failure with Preserved Ejection Fraction,” J Vis Exp 2018(137).
Solutions and chemicals. Chemicals were obtained from Sigma-Aldrich (St. Louis, MO, USA) unless noted otherwise. The dual SGLT1/2 inhibitor sotagliflozin was provided by Lexicon Pharmaceuticals (The Woodlands, TX, USA). Fluorescent dyes Fura-2 AM, Rhod-2 AM, MitoTracker red, MitoTracker green, TMRE and H2-DCF were obtained from Thermo Fisher Scientific (Waltham, MA, USA). Tyrode solution contained (in mM): 130 NaCL, 4 KCl, 2 CaCl, 1 MgCl2, 10 Glucose, 10 HEPES; pH adjusted to 7.4 with NaOH. LA cardiomyocytes were plated on laminin-coated glass coverslips. 20 mM caffeine was added to Tyrode solution to induce sarcoplasmic reticulum (SR) Ca^2+ release and obtain a measure of SR Ca^2+ content. […]
Ca^2+ measurements and sarcomere shortening. Radiometric Ca^2+ measurements (excitation: 340 nm and 385 nm, emission: 510±10 nm; [Ca^2+] expressed as the ratio R=F340/F380) were performed either with a CytoCypher MultiCell System (CytoCypher BV, Netherlands; FIGS. 1C-F, 2D-G, 4A-F) or an Axiovert 200 microscope (Zeiss, Oberkochen, Germany) fluorescence imaging assembly (FIGS. 2A-C, 2H-J, 3A-E, 6E-I). […] Experiments were conducted at 37° C. and CaT were recorded at steady state (following electric stimulation).
CaT and sarcomere shortening of LA and LV cardiomyocytes were recorded for 10 s at 3 Hz stimulation. See FIGS. 2D-G, 4A-F. Electric stimulation was turned off and spontaneous SR Ca^2+ release events (See Voigt N, Heijman J, Wang Q, Chiang D Y, Li N, Karck M, Wehrens X H T, Nattel S, Dobrev D: “Cellular and molecular mechanisms of atrial arrhythmogenesis in patients with paroxysmal atrial fibrillation,” Circulation 2014, 129(2):145-156) (SCaEs) immediately recorded for a duration of 10 s (FIG. 1C-F). […]

LA cardiomyocytes [2] = experiment: Ca2+ transient (CaT) measurements (Fura-2) in LA cardiomyocytes, incl. glucose starvation/reintroduction and glycolytic inhibition
Excerpt: as §1
Solutions and chemicals. Chemicals were obtained from Sigma-Aldrich (St. Louis, MO, USA) unless noted otherwise. The dual SGLT1/2 inhibitor sotagliflozin was provided by Lexicon Pharmaceuticals (The Woodlands, TX, USA). Fluorescent dyes Fura-2 AM, Rhod-2 AM, MitoTracker red, MitoTracker green, TMRE and H2-DCF were obtained from Thermo Fisher Scientific (Waltham, MA, USA). Tyrode solution contained (in mM): 130 NaCL, 4 KCl, 2 CaCl, 1 MgCl2, 10 Glucose, 10 HEPES; pH adjusted to 7.4 with NaOH. LA cardiomyocytes were plated on laminin-coated glass coverslips. 20 mM caffeine was added to Tyrode solution to induce sarcoplasmic reticulum (SR) Ca^2+ release and obtain a measure of SR Ca^2+ content. […] For glucose starvation (FIGS. 2H-J, 5A-D), glucose of Tyrode solution was replaced with 30 mM mannitol. For sub-sequent glucose reintroduction, mannitol was replaced with 30 mM glucose (“high glucose condition”).
(§2) Ca^2+ measurements and sarcomere shortening. Radiometric Ca^2+ measurements (excitation: 340 nm and 385 nm, emission: 510±10 nm; [Ca^2+] expressed as the ratio R=F340/F380) were performed either with a CytoCypher MultiCell System (CytoCypher BV, Netherlands; FIGS. 1C-F, 2D-G, 4A-F) or an Axiovert 200 microscope (Zeiss, Oberkochen, Germany) fluorescence imaging assembly (FIGS. 2A-C, 2H-J, 3A-E, 6E-I). LA cardiomyocytes were loaded with Fura-2 for 30 min at room temperature, washed twice with Tyrode solution and transferred to the microscope. Experiments were conducted at 37° C. and CaT were recorded at steady state (following electric stimulation).
(§3) CaT and sarcomere shortening of LA and LV cardiomyocytes were recorded for 10 s at 3 Hz stimulation. See FIGS. 2D-G, 4A-F. Electric stimulation was turned off and spontaneous SR Ca^2+ release events (See Voigt N, Heijman J, Wang Q, Chiang D Y, Li N, Karck M, Wehrens X H T, Nattel S, Dobrev D: “Cellular and molecular mechanisms of atrial arrhythmogenesis in patients with paroxysmal atrial fibrillation,” Circulation 2014, 129(2):145-156) (SCaEs) immediately recorded for a duration of 10 s (FIG. 1C-F). In a sub-set of LA cells, CaT were recorded for 10 s at 1 Hz stimulation. Electric stimulation was turned off, the cells immediately exposed to 20 mM caffeine and the sub-sequent caffeine-induced CaT recorded for 10 s (FIG. 2A-C, 3A-E). Sodium-calcium exchanger (NCX) activity was calculated as previously described. See Hohendanner F, Walther S, Maxwell J T, Kettlewell S, Awad S, Smith G L, Lonchyna V A, Blatter L A: “Inositol-1,4,5-trisphosphate induced Ca^2+ release and excitation-contraction coupling in atrial myocytes from normal and failing hearts,” J Physiol 2015, 593(6):1459-1477.
Cells were treated with 2-deoxyglucose to inhibit glycolysis for a duration of 3 min, while maintaining steady stimulation at 1 Hz and CaT were recorded for another 10 s. A sub-set of cells was starved of glucose for 1 h at 37° C. CaT were recorded for 10 s at 1 Hz stimulation. See FIGS. 2H-J. Cells were exposed to glucose and constant electric pacing at 1 Hz was maintained. After 1 min, CaT transients were recorded for 10 s at 1 Hz stimulation.

LA cardiomyocytes [3] = experiment: Caffeine-induced CaT: SR Ca2+ load, tau of decay and NCX forward-mode activity
Excerpt: Solutions and chemicals. Chemicals were obtained from Sigma-Aldrich (St. Louis, MO, USA) unless noted otherwise. The dual SGLT1/2 inhibitor sotagliflozin was provided by Lexicon Pharmaceuticals (The Woodlands, TX, USA). Fluorescent dyes Fura-2 AM, Rhod-2 AM, MitoTracker red, MitoTracker green, TMRE and H2-DCF were obtained from Thermo Fisher Scientific (Waltham, MA, USA). Tyrode solution contained (in mM): 130 NaCL, 4 KCl, 2 CaCl, 1 MgCl2, 10 Glucose, 10 HEPES; pH adjusted to 7.4 with NaOH. LA cardiomyocytes were plated on laminin-coated glass coverslips. 20 mM caffeine was added to Tyrode solution to induce sarcoplasmic reticulum (SR) Ca^2+ release and obtain a measure of SR Ca^2+ content. For baseline recordings of Ca^2+ transient (CaT), sarcomere shortening and arrhythmic events (FIGS. 1C-F, 2A-E, 3A-F), Tyrode solution containing 3 mM Ca^2+ was used. For glucose starvation (FIGS. 2H-J, 5A-D), glucose of Tyrode solution was replaced with 30 mM mannitol. For sub-sequent glucose reintroduction, mannitol was replaced with 30 mM glucose (“high glucose condition”).
as §2, §3

LA cardiomyocytes [4] = experiment: Mitochondrial depolarization (TMRE) in LA cardiomyocytes; conditions: differences between groups
Protocol: Mitochondrial depolarization. LA cardiomyocytes were loaded with TMRE and MitoTracker green, transferred to an LSM 800 laser scanning microscope and kept in Tyrode's solution containing 2 mM Ca^2+ and 10 nM TMRE. Two-dimensional images of TMRE (excitation: 561 nm, emission: 565-585 nm) and MitoTracker green fluorescence (excitation: 488 nm, emission: 505-525 nm) were acquired for a duration of 6 min (interval: 2 s, resolution: 512×512 px, pixel size: 1.25 μm, pixel time: 1.03 μs, laser intensity: 4%). A binary mask of both channels was derived using a Bernsen thresholding algorithm (ImageJ). Positive pixels of the MitoTracker green image were defined as mitochondria and a positive overlay of the TMRE image assumed to indicate a polarized state. The standard deviation of polarized mitochondria over time was taken as a measure of spatiotemporal oscillation.

[5] = HFpEF, 2-deoxyglucose, 3 min, 1 Hz
[6] = HFpEF, 3 Hz, 5 mM extracellular [Ca2+]
[7] = baseline, 1 Hz, 2 mM Ca2+, chronic treatment

CCOc1ccc(Cc2cc([C@@H]3O[C@H](SC)[C@@H](O)[C@H](O)[C@H]3O)ccc2Cl)cc1 [sotagliflozin, (2S,3R,4R,5S,6R)-2-(4-chloro-3-(4-ethoxybenzyl)phenyl)-6-(methylthio)tetrahydro-2H-pyran-3,4,5-triol]
amplitude of SCaEs (LA cardiomyocytes [1]): significantly reduced
SCaE event frequency (LA cardiomyocytes [1]; non-stimulated interval after 3 Hz): remained unaltered
increased CaT amplitude gain upon glycolytic inhibition (LA cardiomyocytes [2]; [5]): prevented
increased influx of diastolic Ca2+ upon glycolytic inhibition (LA cardiomyocytes [2]; [5]): prevented
CaT amplitudes (LA cardiomyocytes [2]; [6]): unchanged
diastolic [Ca2+] (LA cardiomyocytes [2]; [6]): significant reduction
glucose-mediated influx of diastolic Ca2+ (LA cardiomyocytes [2]; HFpEF, 1 h glucose starvation, then 30 mM glucose): prevented
CaT amplitude (LA cardiomyocytes [2]; [7]): did not alter
diastolic [Ca2+] (LA cardiomyocytes [2]; [7]): did not alter
SR Ca2+ load (LA cardiomyocytes [3]; HFpEF, 20 mM caffeine): no effect
tau of caffeine-induced CaT (LA cardiomyocytes [3]; HFpEF, 20 mM caffeine): unchanged
tau of decay (paced CaT) (LA cardiomyocytes [3]; HFpEF, 1 Hz electric stimulation): significantly prolonged
increase of contribution of NCX forward-mode activity on cytosolic Ca2+ removal (LA cardiomyocytes [3]; HFpEF, Sota vs vehicle): −50%
contribution of NCX forward-mode activity on cytosolic Ca2+ removal (LA cardiomyocytes [3]; HFpEF, vehicle 7.6±0.7, n=14 and 21 cells): 11.6±0.7%
increased forward mode NCX activity (LA cardiomyocytes [3]; after chronic treatment, HFpEF vs WT): only occurs in HFpEF, but not WT
incidence and spatial distribution of mitochondrial depolarizations (LA cardiomyocytes [4]): could not be detected
